Data as given in ChEMBL document CHEMBL1122997, “Conjugates of catecholamines. 5. Synthesis and beta-adrenergic activity of N-(aminoalkyl)norepinephrine derivatives” (J Med Chem, 1985).

Biological target: Beta-adrenergic receptor (Mus musculus, UniProt P34971+P18762+P25962)
Assay: Effective concentration against 125I]iodocyanopindolol(ICYP) binding to beta adrenergic receptor was determined
Type: protein assay

| SMILES | EC50 [µM] |
| --- | --- |
| NCCCNCC(O)c1ccc(O)c(O)c1 (configuration not stated) | 160 |
| CC(CCCCNC(=O)OCc1ccccc1)NCC(O)c1ccc(O)c(O)c1 (configuration not stated) | 0.049 |
